Data on 1 substance can be found in patent US9402875B2, “Amidated dopamine neuron stimulating peptide restoration of mitochondrial activity” (University of Kentucky Research Foundation, priority 2006, dated 2016).

Ends that are not written are not given here.

Assay [1] concerns the target T1, glyceraldehyde-3-phosphate dehydrogenase (GAPDH) (Rattus norvegicus, UniProt P04797).
T1 construct: homogenate from isolated substantia nigra of normal young Fischer 344 rats; from tissue; host or cells: substantia nigra of Fischer 344 rats (cytosolic and membrane fractions)
The experiment in a line: DNSP-11 pull-down with substantia nigra homogenate, 2D-PAGE and MALDI-TOF MS. The class given is binding. How it is done: DNSP-11 Pull-down analysis: The F344 substantia nigra was homogenized in homogenization buffer (modified from York et al. (2005) FASED J. 19: 1202-4 with 20 mM HEPES, pH 7.4) and cytosolic fraction (supernatant) collected after 30 minutes at 100,000 g. 50 μg of bDNSP-11 was incubated with fraction for 15 minutes on ice. Sample was added to streptavidin magnetic beads (New England Biolabs), pelleted, and washed four times in homogenization buffer. Bound proteins were eluted by Solubilization/Rehydration Solution (7 M Urea, 2 M Thiourea, 50 mM DTT, 4% CHAPS, 1% NP-40, 0.2% Carrier ampholytes, 0.0002% Bromophenol blue), and analyzed by 2D-PAGE and MALDI-TOF MS.
In order to identify the interactions of DNSP-11 with protein partners and to gain insight into the cellular mechanisms involved with the actions of DNSP-11, a pull-down assay was performed with homogenate from isolated substantia nigra of normal young Fischer 344 rats. Cytosolic and membrane fractions were collected and incubated with biotinylated DNSP-11 for 30 minutes. Bound proteins were pulled down by strepavidin magnetic beads, extensively washed to remove non-specific binders, eluted with solubilization/rehydration buffer and separated by 2D-PAGE.
To identify these binding partners, protein bands were excised from the gels, trypsin digested, and analyzed by MALDI-TOF mass spectrometry. […]

The subject of another assay is MN9D dopaminergic cells. Nature of the assay: Caspase-3 activity assay, protection against 6-OHDA toxicity. The class given is cell-based. The conditions noted are these: 1 ng/mL for 1 hour before 100 μM 6-OHDA for 15 min; at 3 h. Here is the method:
MN9D Cell Cultures: The MN9D cell line has been described by Choi (1991) Brain Res. 552:67-76 and was a gift from Michael Zigmond. Cells were cultured in DMEM supplemented with 10% Fetal Bovine Serum (FBS, Hyclone), 50 U/mL penicillin and streptomycin. For experiments, the cells were plated on 24-well poly-D-lysine in DMEM with 1% (v/v) penicillin-streptomycin. The cells were grown at 37° C. in 5% CO2.
Caspase-3 Activity Assay in MN9D Cells: MN9D cells were plated to 100,000 cells/well. Cell cultures were exposed to DNSP-11 (1 ng/mL) or buffer for 1 hour prior to 15 min 100 μM 6-OHDA exposure. Caspase-3 activity was monitored after 3 hours by fluorescence (excitation/emission 496/520 nm) using the Enz Chek Caspase-3 kit. Protein levels of lysed cells were measured by BCA assay (BioRad) and normalized for every experiment. Data expressed as % control and repeated a minimum of 3 times.
To evaluate DNSP-11's neuroprotective properties, DNSP-11 was compared to GDNF in its protection against 6-OHDA-induced toxicity in the dopaminergic cell line, MN9D. MN9D dopaminergic cells were incubated for 1 hour with either citrate buffer (control), 1 ng/mL of DNSP-11 or GDNF prior to 100 μM 6-OHDA exposure for 15 min. Data are +SD, one-way ANOVA with Tukey's post hoc analysis, *p<0.05, **p<0.01, ***p<0.001 vs. control; #p<0.05, ##p<0.01, ###p<0.001 vs. 6-OHDA.

T1 sequence (P04797 whole entry): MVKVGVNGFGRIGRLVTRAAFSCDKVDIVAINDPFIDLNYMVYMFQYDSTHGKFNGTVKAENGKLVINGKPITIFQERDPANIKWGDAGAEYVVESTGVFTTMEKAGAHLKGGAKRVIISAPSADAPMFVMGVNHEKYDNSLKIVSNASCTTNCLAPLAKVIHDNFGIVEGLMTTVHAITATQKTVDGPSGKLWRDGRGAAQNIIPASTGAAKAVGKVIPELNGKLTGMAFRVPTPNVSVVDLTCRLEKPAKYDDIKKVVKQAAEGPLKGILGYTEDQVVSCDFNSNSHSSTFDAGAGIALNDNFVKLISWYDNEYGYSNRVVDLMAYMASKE

For the substance “PPEAPAEDRSL-NH2 [DNSP-11, PPEAPAEDRSL-amide]”, the “GAPDH as binding partner in pull-down” value in assay [1] (biotinylated DNSP-11, substantia nigra fractions, confirmed with pure GAPDH) was “identified”. For the same substance, the “number of bound proteins identified” value in assay [1] (cytosolic and membrane fractions, preliminary studies) is reported as “approximately 20”. For the same substance, the caspase-3 activity entry in the assay with MN9D dopaminergic cells is on record as “significant reduction”.
